Active and inactive are the calls of the source.
Assays:
[1] = molecular target: T1, Intestinal-type alkaline phosphatase (Homo sapiens, UniProt P09923); test: human intestinal alkaline phosphatase activators, dose response, biochemical, luminescence, uHTS hits (AID 463120); format: functional
[2] = molecular target: T2, Alkaline phosphatase, tissue-nonspecific isozyme (Homo sapiens, UniProt P05186); test: activation of tissue-nonspecific alkaline phosphatase – biochemical, TNAP isozyme, human IAP uHTS hits, selectivity assay for human IAP activator project, dose response (AID 488886); format: functional;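 also: potency of compounds raising TNAP activity as a selectivity check on IAP activators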
T2 sequence (P05186 whole entry): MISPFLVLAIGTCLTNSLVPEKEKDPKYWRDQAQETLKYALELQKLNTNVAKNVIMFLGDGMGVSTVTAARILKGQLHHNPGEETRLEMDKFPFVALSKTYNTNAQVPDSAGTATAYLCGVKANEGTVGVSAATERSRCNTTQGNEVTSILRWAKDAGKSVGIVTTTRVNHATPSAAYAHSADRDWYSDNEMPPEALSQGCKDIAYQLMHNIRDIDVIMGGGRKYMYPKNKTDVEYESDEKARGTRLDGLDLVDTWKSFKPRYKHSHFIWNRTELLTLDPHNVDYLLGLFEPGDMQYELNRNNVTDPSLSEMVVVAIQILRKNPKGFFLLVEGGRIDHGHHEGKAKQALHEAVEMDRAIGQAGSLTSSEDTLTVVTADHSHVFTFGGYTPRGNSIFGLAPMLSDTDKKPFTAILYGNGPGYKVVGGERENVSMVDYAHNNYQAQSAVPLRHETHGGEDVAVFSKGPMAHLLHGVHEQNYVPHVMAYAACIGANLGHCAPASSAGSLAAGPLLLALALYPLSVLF

[3] = molecular target: T1, Intestinal-type alkaline phosphatase; test: activation of human intestinal alkaline phosphatase – biochemical, luminescent, uHTS hits, set 2, dose response (AID 488817); format: functional;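 also: potency of activators that raise enzyme activity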
[4] = molecular target: Intestinal-type alkaline phosphatase (Mus musculus, UniProt P24822); test: PubChem AID 488875; format: functional
Sequence of Intestinal-type alkaline phosphatase (Mus musculus, UniProt P24822) (P24822 whole entry): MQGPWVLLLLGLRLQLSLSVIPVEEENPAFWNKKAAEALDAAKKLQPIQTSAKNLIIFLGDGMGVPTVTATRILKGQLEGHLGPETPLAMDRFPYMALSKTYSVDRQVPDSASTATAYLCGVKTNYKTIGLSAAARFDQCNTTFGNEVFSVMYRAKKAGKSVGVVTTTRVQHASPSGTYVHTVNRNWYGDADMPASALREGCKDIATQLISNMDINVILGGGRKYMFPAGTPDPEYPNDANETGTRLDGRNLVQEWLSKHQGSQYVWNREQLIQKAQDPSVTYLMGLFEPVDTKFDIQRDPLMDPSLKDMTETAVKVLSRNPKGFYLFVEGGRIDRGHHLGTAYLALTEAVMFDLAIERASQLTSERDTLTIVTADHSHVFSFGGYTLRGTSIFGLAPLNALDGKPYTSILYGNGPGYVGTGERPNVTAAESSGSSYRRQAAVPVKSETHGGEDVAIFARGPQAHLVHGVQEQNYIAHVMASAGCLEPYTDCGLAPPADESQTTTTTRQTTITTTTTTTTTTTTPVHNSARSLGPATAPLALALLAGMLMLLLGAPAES

[5] = molecular target: G-protein coupled receptor 55 (Homo sapiens, UniProt Q9Y2T6); test: blockers of GPR55 signalling, imaged – imaging, image-based, counter-screen for GPR35 antagonist project, SAR follow-up (AID 2397); format: functional
Sequence of G-protein coupled receptor 55 (Q9Y2T6 whole entry): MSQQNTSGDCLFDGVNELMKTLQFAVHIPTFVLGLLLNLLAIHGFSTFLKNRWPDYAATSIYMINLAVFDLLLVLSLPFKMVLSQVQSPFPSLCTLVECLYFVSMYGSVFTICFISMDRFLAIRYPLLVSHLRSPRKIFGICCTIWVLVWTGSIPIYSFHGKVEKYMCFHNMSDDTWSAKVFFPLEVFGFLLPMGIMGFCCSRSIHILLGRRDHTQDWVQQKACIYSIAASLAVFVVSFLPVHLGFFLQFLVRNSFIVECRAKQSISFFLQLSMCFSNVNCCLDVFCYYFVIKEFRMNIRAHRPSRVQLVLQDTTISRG

Cytochrome P450 3A4 = Cytochrome P450 3A4 (Homo sapiens, UniProt P08684);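 also: CYP3A4 tested as one member of a cytochrome P450 panel screen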
Sequence of Cytochrome P450 3A4 (P08684 whole entry, the tested form may be a part): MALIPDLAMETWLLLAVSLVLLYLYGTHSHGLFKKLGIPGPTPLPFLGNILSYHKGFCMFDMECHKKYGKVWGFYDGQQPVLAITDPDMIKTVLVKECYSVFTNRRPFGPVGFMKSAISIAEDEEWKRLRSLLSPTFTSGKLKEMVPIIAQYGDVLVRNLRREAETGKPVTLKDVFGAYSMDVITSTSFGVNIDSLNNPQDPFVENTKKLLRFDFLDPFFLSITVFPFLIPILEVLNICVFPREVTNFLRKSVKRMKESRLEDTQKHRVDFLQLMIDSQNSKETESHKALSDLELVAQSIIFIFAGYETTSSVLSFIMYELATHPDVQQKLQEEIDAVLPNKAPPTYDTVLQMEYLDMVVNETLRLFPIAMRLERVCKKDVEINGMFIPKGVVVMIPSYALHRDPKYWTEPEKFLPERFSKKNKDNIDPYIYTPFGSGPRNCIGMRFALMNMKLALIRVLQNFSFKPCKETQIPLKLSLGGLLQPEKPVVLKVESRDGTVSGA

[6] = molecular target: T3, RNA-binding protein pos-1 (Caenorhabditis elegans, UniProt G5EF15); test: disruptors of C. elegans POS-1 RNA interaction – biochemical, fluorescence polarization, dose response (AID 1964);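 also: purified POS-1 fused to maltose binding protein made in E. coli; potency of compounds blocking POS-1 binding to fluorescent RNA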
T3 sequence (G5EF15 whole entry): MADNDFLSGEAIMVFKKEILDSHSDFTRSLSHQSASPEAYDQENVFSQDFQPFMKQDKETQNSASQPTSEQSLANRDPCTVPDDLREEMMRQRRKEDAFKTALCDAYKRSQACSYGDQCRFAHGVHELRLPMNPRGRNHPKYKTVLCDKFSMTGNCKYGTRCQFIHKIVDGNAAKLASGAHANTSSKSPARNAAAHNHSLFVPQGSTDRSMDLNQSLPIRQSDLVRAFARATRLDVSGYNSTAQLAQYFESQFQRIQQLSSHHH

[7] = molecular target: UDP-galactopyranose mutase (Mycobacterium tuberculosis, UniProt P9WIQ1); test: Inhibitors of Mycobacterium tuberculosis UDP-galactopyranose mutase (UGM) enzyme Measured in Biochemical System Using Plate Reader - 2105-02_Inhibitor_Dose_CherryPick_Activity. [Related pubchem assays (depositor defined):AID504439]
Sequence of UDP-galactopyranose mutase (P9WIQ1 whole entry): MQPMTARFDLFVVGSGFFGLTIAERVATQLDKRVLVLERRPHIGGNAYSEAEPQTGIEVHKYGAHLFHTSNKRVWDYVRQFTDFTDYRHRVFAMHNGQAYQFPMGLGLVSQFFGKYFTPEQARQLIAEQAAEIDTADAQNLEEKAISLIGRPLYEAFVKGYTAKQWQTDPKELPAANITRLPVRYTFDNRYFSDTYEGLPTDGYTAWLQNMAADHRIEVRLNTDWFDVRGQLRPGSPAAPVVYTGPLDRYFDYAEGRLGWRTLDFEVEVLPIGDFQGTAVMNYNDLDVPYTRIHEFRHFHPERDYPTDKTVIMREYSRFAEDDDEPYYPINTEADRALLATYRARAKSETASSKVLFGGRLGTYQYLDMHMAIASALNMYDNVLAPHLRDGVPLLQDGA

[8] = molecular target: T4, Zinc finger protein mex-5 (Caenorhabditis elegans, UniProt Q9XUB2); test: potency of MEX-5 RNA-binding blockers – biochemical, C. elegans, fluorescence polarization, dose response (AID 1960)
T4 sequence (Q9XUB2 whole entry): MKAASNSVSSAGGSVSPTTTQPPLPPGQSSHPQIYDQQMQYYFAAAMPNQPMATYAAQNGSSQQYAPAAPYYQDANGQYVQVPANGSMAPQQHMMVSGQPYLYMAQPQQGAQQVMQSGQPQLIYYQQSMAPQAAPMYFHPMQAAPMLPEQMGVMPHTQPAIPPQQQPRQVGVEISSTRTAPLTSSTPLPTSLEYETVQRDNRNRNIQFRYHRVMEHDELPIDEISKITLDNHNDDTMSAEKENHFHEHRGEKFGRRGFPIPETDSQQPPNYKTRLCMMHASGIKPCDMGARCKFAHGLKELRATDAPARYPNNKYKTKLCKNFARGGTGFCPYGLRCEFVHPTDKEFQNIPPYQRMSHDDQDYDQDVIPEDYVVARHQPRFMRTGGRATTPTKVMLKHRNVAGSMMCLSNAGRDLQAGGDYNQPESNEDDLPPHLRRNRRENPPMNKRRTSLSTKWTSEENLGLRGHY

[9] = molecular target: Protein phosphatase methylesterase 1 (Homo sapiens, UniProt Q9Y570); test: inhibition of PME-1 probe labeling – gel-based ABPP, IC50, set 1, late-stage follow-up (AID 463130); format: functional
Sequence of Protein phosphatase methylesterase 1 (Q9Y570 whole entry): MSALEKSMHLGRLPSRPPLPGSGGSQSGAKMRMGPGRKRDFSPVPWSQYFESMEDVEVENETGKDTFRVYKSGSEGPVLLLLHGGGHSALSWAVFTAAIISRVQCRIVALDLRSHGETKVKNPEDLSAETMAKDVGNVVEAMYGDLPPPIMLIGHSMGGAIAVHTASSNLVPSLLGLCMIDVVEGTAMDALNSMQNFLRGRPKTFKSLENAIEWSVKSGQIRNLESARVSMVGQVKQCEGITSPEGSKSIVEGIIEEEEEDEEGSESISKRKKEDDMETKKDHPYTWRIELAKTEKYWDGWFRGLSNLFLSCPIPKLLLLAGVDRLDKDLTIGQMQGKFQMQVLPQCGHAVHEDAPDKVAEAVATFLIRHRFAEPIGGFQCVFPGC

X-box-binding protein 1 = molecular target: T5, X-box-binding protein 1 (Homo sapiens, UniProt P17861); format: functional, Cricetulus griseus;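 also: confirmatory dose-response counter-screen serving a CHOP assay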
T5 sequence (P17861 whole entry): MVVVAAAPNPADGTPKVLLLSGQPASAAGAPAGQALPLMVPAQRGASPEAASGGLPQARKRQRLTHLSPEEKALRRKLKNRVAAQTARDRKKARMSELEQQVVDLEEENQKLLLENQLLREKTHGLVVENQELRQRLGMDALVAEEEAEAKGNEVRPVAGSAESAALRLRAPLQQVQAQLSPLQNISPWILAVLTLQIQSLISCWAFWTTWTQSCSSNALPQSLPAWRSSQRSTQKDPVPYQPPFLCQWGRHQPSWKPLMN

[10] = molecular target: DNA damage-inducible transcript 3 protein (Mus musculus, UniProt P35639); format: functional, Cricetulus griseus
Sequence of DNA damage-inducible transcript 3 protein (P35639 whole entry): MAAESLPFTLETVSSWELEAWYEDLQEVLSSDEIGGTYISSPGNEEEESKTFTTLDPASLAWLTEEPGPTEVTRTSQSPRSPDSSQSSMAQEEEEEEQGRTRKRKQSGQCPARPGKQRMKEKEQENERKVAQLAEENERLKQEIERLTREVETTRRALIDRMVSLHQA

[11] = molecular target: Heat shock cognate 71 kDa protein (Homo sapiens, UniProt P11142); test: In Vitro Hsc70 Dose Response Fluorescence Polarization Assay. [Related pubchem assays: 1072 ]
Sequence of Heat shock cognate 71 kDa protein (P11142 whole entry): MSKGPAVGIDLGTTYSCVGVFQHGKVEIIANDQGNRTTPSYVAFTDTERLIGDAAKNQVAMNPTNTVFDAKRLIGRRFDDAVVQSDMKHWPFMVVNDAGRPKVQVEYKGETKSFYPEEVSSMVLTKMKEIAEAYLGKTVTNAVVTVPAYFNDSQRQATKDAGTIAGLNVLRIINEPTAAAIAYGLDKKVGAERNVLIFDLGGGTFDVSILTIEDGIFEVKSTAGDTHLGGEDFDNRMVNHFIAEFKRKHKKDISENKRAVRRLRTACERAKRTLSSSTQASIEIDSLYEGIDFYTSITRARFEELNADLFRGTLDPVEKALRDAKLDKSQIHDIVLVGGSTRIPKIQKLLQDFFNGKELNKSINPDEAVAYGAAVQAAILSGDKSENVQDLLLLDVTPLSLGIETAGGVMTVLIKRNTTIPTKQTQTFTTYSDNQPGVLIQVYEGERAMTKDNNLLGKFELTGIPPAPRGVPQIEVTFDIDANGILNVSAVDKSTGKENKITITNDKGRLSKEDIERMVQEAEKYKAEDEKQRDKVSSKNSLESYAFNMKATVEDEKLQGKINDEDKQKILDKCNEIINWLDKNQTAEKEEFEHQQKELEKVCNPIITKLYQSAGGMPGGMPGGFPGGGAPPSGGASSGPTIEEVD

[12] = molecular target: T6, Dual specificity protein phosphatase 6 (Rattus norvegicus, UniProt Q64346); format: functional
T6 sequence (Q64346 whole entry): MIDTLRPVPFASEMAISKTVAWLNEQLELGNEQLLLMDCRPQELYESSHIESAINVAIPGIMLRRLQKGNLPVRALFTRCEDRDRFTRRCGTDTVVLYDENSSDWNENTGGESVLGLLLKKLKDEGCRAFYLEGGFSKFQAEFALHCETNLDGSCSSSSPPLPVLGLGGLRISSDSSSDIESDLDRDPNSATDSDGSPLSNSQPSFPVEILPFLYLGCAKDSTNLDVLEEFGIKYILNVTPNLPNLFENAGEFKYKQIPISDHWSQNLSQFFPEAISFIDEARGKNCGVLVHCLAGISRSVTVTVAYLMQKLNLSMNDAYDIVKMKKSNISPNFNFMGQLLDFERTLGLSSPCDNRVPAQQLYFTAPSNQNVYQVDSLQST

[13] = molecular target: Glyceraldehyde-3-phosphate dehydrogenase (Homo sapiens, UniProt P04406)
Sequence of Glyceraldehyde-3-phosphate dehydrogenase (P04406 whole entry): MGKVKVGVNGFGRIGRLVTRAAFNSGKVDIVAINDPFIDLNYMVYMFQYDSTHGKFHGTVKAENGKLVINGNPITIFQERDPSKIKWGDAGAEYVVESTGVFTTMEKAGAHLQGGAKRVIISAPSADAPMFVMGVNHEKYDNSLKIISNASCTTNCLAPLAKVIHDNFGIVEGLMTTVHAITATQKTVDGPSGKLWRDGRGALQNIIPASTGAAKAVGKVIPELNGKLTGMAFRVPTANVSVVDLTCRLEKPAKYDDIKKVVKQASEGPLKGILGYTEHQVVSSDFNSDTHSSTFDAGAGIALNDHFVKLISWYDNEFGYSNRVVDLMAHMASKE

[14] = molecular target: Heat shock 70 kDa protein 1A (Homo sapiens, UniProt P0DMV8); test: inhibition of Hsp70 binding activity – biochemical, fluorescence polarization, SAR follow-up (AID 1072)
Sequence of Heat shock 70 kDa protein 1A (P0DMV8 whole entry): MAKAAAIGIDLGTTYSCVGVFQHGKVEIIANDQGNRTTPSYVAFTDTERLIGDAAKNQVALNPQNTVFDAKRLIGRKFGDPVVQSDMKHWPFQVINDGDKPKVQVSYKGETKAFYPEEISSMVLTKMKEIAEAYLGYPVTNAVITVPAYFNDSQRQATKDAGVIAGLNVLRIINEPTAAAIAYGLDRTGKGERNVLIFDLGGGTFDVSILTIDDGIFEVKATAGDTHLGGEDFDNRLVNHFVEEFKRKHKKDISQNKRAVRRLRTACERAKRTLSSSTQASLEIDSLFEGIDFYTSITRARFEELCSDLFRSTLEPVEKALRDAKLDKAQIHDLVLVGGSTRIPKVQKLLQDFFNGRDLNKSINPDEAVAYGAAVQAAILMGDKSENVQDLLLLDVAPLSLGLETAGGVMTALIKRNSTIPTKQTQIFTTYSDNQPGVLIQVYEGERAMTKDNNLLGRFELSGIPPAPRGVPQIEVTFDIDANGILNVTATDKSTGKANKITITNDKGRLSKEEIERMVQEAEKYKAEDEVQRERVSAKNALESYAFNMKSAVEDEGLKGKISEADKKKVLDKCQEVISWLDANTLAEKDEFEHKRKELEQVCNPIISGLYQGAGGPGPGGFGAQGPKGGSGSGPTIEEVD

[15] = molecular target: T7, Tyrosine-protein phosphatase non-receptor type 7 (Homo sapiens, UniProt P35236); format: functional
T7 sequence (P35236 whole entry): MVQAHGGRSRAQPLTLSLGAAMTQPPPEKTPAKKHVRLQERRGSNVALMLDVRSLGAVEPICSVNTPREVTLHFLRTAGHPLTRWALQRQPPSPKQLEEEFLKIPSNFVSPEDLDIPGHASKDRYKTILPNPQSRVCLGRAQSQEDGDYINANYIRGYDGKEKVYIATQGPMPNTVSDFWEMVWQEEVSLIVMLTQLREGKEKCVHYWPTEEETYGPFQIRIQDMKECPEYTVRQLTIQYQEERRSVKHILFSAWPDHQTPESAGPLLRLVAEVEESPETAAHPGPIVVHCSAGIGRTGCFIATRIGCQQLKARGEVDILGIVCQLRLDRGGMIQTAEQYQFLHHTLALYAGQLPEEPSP

[16] = molecular target: T6, Dual specificity protein phosphatase 6

T1 sequence (P09923 whole entry): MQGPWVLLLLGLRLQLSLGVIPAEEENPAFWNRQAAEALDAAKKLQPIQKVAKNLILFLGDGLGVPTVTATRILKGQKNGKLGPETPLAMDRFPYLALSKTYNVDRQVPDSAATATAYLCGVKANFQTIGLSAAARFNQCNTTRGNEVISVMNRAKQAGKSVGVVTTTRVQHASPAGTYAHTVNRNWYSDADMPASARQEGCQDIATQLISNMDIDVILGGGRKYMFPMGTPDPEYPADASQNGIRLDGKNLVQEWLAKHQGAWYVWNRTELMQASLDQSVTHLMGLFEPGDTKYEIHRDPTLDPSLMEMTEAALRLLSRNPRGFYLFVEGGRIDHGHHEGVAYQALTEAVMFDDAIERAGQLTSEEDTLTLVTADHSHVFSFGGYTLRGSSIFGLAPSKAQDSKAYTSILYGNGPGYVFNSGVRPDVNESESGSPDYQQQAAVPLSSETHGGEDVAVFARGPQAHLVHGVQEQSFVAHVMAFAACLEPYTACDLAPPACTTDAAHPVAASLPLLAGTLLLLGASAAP

In the case of `CCOc1cccc(-c2nc(C(N)=O)c3nc(O)n(-c4cccc(Cl)c4)c3n2)c1O`, the EC50 [1] is reported as 4.9 µM (active), the EC50 [2] is reported as 2.41 µM (active) and the EC50 [3] is reported as 3.66 µM (active). The EC50 [4] was > 100 µM (inactive).
`COc1ccc(-c2nnc(-c3cccnc3)o2)cc1` was tested, and the IC50 [5] was > 32 µM (inactive) and the AC50 (Cytochrome P450 3A4) was 1.58 µM (inconclusive).
For `NC(=O)Cn1cc(C=C2C(=O)NC(=O)NC2=O)c2ccccc21`, the EC50 [6] was > 300 µM (inconclusive), the AC50 [7] was 82.3 µM (active) and the EC50 [8] was > 300 µM (inconclusive).
`COC(=O)N1C(=O)[C@@](CC(C)C)(c2ccccc2)N1C(=O)OC` was tested, and the IC50 [9] was 0.227 µM (active).
In the case of `C=CCO/C(O)=C1\C(C)=NC(SCC(=O)Nc2ccccc2)=C(C#N)C1c1ccco1` (stereo not drawn), the “Absolute IC50 (XBP1)” value (X-box-binding protein 1) is reported as 10 µM and the “Absolute IC50 (CHOP)” value [10] is reported as 10 µM.
For `Cc1ccc(C)c2c1NC(C(=O)O)C1CC=CC21` (stereo not drawn), the IC50 [11] was > 100 µM (not active), the IC50 [12] was > 100 µM (inactive) and the IC50 [13] was > 100 µM (not active). The IC50 [14] was > 100 µM (not active), the IC50 [15] was > 100 µM (not active) and the IC50 [16] was > 100 µM (inactive).

Source: ChEMBL document CHEMBL1201862, “PubChem BioAssay data set” (2004)
